Laboratory results reported in patent US4402964A, “N-Aryl-N'-(3-methyl or ethyl-4-oxothiazolidinylidene)ureas useful for the treatment of epilepsy” (McNeilab, Inc., priority 1981, dated 1983).

System: tonic extensor seizure caused by applying an electric shock to mice via corneal electrodes
Assay: Maximal Electroshock (MES) test in mice (anticonvulsant activity)
Type: in vivo
Set-up: key to Mice MES test results (IA): IA: inactive
Details: for ED50: Mus musculus, po, read-out: ED50, Mice MES test results dose (50% of the animals show a block of tonic extensor convulsions)
Description: Activity in the MES test, indicating anticonvulsant activity, is characterized by a block of the tonic extensor seizure caused by applying an electric shock to mice via corneal electrodes as described in Swinyard et al., J. Pharmacol. Exp. Ther., 106, 319-330 (1952) and recorded as % block. A more recent description of current practice in anticonvulsant drug screening has also been reported by Swinyard et al., Epilepsia, 19, 409-428 (1978).
In said table, the ED50 result means that 50% of the animals show a block of tonic extensor convulsions in the MES test.

[1] = 10 mg/kg p.o., mice, only dose available

Compound	ED50 (mice, p.o.) [mg/kg]	further results
CN1C(=O)CSC1=NC(=O)Nc1c(Br)cc(F)cc1Br [VI]	–	Mice MES test results (activity in words) (200 mg/kg p.o.): Active; % block (MES test) (200 mg/kg p.o., mice): 60%
CCc1cccc(CC)c1NC(=O)N=C1SCC(=O)N1C [V]	17.5	–
Cc1cccc(C)c1NC(=O)N=C1SCC(=O)N1C [Example I, N-(2,6-dimethylphenyl)-N'-(3-methyl-4-oxo-2-thiazolidinylidene)urea]	9.96	–
O=C1CSC(=NC(=O)Nc2ccccc2)N1 [Example X-888, reference compound]	–	Mice MES test results (activity in words) (200 mg/kg p.o.): not active; Mice MES test results (IA) (200 mg/kg p.o., mice): IA
CCc1cccc(C)c1NC(=O)N=C1SCC(=O)N1C [III]	–	% block (MES test) [1]: 10%; Mice MES test results (activity in words) [1]: Active
O=C1CSC(=NC(=O)Nc2c(Cl)cccc2Cl)N1 [McN-4242, reference compound]	–	Mice MES test results (IA) (200 mg/kg p.o., mice): IA
Cc1cccc(C)c1NC(=O)N=C1NC(=O)CS1 [McN-4241, reference compound]	242	ED50 range, Mice MES test results (mice, p.o., range printed in parentheses with the ED50): 196.5 to 296.9 mg/kg
COc1cccc(OC)c1NC(=O)N=C1SCC(=O)N1C [IX]	35.7	–
Cc1cccc(Cl)c1NC(=O)N=C1SCC(=O)N1C [IV, N-(2-chloro-6-methylphenyl)-N'-(3-methyl-4-oxo-2-thiazolidinylidene)urea]	28.5	–
CN1C(=O)CSC1=NC(=O)Nc1c(F)cccc1F [Example X]	52.2	–
CN1C(=O)CSC1=NC(=O)Nc1c(Cl)cccc1Cl [Example II, N-(2,6-dichlorophenyl)-N'-(3-methyl-4-oxo-2-thiazolidinylidene)urea]	28.3	–
Cc1cccc(NC(=O)N=C2SCC(=O)N2C)c1C [VIII]	128	–
CN1C(=O)CSC1=NC(=O)Nc1c(Br)cccc1Br [VII]	83.9	–
